Reference: paper PMC7528081, “The electrophysiological effect of cannabidiol on hERG current and in guinea-pig and rabbit cardiac preparations” (Scientific Reports, 2020)

biological target: T1, hERG potassium channel (Homo sapiens, UniProt Q12809); experiment: automated whole-cell patch clamp (Patchliner), HEK […] cells expressing hERG, room temperature; assay type: cell-based
T1 construct: gene KCNH2
T1 sequence (Q12809 whole entry): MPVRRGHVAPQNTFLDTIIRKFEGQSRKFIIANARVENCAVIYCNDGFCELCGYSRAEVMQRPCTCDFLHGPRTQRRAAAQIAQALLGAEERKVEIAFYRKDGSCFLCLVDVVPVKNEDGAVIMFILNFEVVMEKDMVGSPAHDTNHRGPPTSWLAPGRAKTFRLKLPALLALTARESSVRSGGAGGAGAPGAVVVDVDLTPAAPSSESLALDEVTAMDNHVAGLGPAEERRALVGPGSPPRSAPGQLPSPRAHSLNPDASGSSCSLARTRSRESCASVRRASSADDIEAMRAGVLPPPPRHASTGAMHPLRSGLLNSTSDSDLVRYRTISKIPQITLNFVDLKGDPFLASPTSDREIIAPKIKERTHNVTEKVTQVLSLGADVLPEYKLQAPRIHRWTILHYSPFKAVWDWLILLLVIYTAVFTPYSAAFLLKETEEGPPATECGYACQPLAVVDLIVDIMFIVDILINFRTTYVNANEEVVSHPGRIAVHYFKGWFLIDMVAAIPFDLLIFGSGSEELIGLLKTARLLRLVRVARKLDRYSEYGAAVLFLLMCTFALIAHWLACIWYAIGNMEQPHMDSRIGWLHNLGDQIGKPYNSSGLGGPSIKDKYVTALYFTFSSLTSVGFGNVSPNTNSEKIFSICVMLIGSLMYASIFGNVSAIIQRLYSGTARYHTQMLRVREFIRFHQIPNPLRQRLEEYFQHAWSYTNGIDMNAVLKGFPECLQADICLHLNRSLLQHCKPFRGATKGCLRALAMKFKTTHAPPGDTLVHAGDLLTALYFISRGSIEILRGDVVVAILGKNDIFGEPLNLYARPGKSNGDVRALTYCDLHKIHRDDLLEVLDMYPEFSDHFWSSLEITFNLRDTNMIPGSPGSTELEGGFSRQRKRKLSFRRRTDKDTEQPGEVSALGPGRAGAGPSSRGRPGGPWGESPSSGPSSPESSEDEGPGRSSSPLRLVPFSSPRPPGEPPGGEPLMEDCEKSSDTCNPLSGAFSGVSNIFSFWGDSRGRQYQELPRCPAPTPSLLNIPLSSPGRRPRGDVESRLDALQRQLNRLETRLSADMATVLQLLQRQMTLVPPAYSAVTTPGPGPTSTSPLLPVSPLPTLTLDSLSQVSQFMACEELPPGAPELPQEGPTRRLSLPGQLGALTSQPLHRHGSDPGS

Structure (SMILES)	IC50 [µM]
CCCCCc1cc(O)c2c(c1)OC(C)(C)[C@@H]1CCC(C(=O)O)=C[C@@H]21 [11-nor-9-carboxy-tetrahydrocannabinol]	65.4 ± 3.82
C=C(C)[C@@H]1CCC(C)=C[C@H]1c1c(O)cc(CCCCC)cc1O [cannabidiol]	2.07 ± 0.12
CCCCCc1cc(O)c2c(c1)OC(C)(C)[C@@H]1CCC(C)=C[C@@H]21 [tetrahydrocannabinol]	10.3 ± 0.55
